Measured values taken from patent US20090030039A1, “Piperidine Derivatives as Cxcr3 Receptor Antagonists” (priority 2006, published 2009).

Target: T1, human CXCR3 (Homo sapiens, UniProt P49682)
T1 construct: expressed in transfected cells; host or cells: CHO cells (membrane preparation)
T1 sequence (P49682 1-368): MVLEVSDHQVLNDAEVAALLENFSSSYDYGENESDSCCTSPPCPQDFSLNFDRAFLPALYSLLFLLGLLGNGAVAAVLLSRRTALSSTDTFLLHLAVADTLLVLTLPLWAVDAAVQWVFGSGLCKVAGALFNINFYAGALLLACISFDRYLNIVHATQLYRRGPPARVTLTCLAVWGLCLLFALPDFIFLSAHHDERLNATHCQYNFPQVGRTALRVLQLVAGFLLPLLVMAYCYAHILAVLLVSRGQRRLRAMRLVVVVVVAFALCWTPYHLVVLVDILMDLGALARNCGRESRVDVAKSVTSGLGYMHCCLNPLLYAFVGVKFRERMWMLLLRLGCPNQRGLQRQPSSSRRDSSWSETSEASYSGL
Assay: [35S]GTPγS exchange assay, CXCR3 receptor inhibition (hI-TAC-induced GTPγS-binding)
Format: biochemical
Conditions: -log IC50 (molar) inhibiting 50% of specific I-TAC-induced GTPγS-binding; membranes of human CXCR3-transfected CHO cells
Procedure: CXCR3 Receptor Inhibition was Examined in a [^35S]GTPγS Exchange Assay
The exchange of guanosine 5′-[^35S]triphosphate was measured on membranes of human CXCR3-transfected CHO cells. [^35S]GTPγS exchange assays were performed in 96-well plates with 10 μg of membrane protein/well using basic flashplates (Perkin Elmer). Compounds were dissolved in DMSO and diluted with incubation buffer to yield required concentrations with 9% DMSO. Incubation buffer is composed of 20 mM HEPES, 100 mM NaCl, 3 μM GDP and 1 mM MgCl2, pH 7.4. […] Compound, membranes, hI-TAC (interferon-inducible T-cell alpha chemoattractant) and [^35S]GTPγS were added in a total volume of 200 μl. First, 20 μl of the appropriate compound dilution and 140 μl membranes from CXCR3-CHO cells were dissolved in membrane incubation buffer and pre-incubated for 30 minutes at 30° C. Then, 20 μl of hI-TAC dissolved at 30 nM in incubation buffer was added to the membranes and the mixture containing 1% of DMSO was incubated for another 30 minutes at 30° C. […] After 1 minute shaking and 30 minutes incubation at 30° C., flashplates were centrifuged for 5 minutes at 2500 rpm at room temperature. Flashplate bound radioactivity was determined by liquid scintillation counting. Basal GTPγS-binding was measured in 8 wells with membranes incubated in the same volume with 1% DMSO, without I-TAC. Maximal GTPγS-binding was measured in 8 wells with membranes incubated with 1% DMSO and 3 nM I-TAC. […] IC50 values were calculated using non-linear regression in Graphpad Prism.

SMILES	pIC50
O=C1CCC(c2ccncc2)(C2CCN(Cc3ccc(Br)cc3)CC2)C(=O)N1 (stereo not shown) [Compound 2]	6.2
O=C1CCC(c2ccccc2)(C2CCN(Cc3ccc(Br)cc3)CC2)CN1 (stereo not shown) [Compound 5]	6.3
O=C1CCC(c2cccc(C(=O)O)c2)(C2CCN(Cc3ccc(Br)cc3)CC2)C(=O)N1 (stereo not shown) [Compound 23]	6.2
O=C1CCC(c2ccccn2)(C2CCN(Cc3ccc(Br)cc3)CC2)C(=O)N1 (stereo not shown) [Compound 30]	6.3
CNC(=O)c1cccc(C2(C3CCN(Cc4ccc(Br)cc4)CC3)CCC(=O)NC2=O)c1 (stereo not shown) [Compound 32]	5.5
NC(=O)c1cccc(C2(C3CCN(Cc4ccc(Br)cc4)CC3)CCC(=O)NC2=O)c1 (stereo not shown) [Compound 33]	5.5
O=C1CCC(c2cccc(C(=O)N3CCOCC3)c2)(C2CCN(Cc3ccc(Br)cc3)CC2)C(=O)N1 (stereo not shown) [Compound 37]	6.1
CSCN1C(=O)CCC(c2ccccc2)(C2CCN(Cc3ccc(Br)cc3)CC2)C1=O (stereo not shown) [Compound 38]	6.0
O=C1CCC(c2cccc(O)c2)(C2CCN(Cc3ccc(Br)cc3)CC2)C(=O)N1 (stereo not shown) [Compound 39]	6.0

Same assay, conditions: -log IC50 (molar) inhibiting 50% of specific I-TAC-induced GTPγS-binding; membranes of human CXCR3-transfected CHO cells; read-out: pIC50 (converted)

SMILES	IC50 [nM]
O=C1CCC(c2ccc(F)cc2F)(C2CCN(Cc3ccc(Br)cc3)CC2)C(=O)N1 (racemic) [Compound 194]	100
O=C1CCC(c2ccc(F)cc2F)(C2CCN(Cc3ccc(Cl)c(F)c3)CC2)C(=O)N1 (racemic) [Compound 202]	251
O=C1CCC(c2ccccc2)(C2CCN(Cc3ccc(Br)cc3)CC2)C(=O)N1 (single isomer, unassigned) [Compound 14]	631
CC(c1ccc(Br)cc1)N1CCC(C2(c3ccccc3)CCC(=O)NC2=O)CC1 (single isomer, unassigned) [Compound 17]	2000
CC(c1ccc(Br)cc1)N1CCC(C2(c3ccccc3)CCC(=O)NC2=O)CC1 (single isomer, unassigned) [Compound 18]	398
O=C1CCC(c2ccc(F)cc2F)(C2CCN(Cc3ccc(Br)cc3)CC2)C(=O)N1 (single isomer, unassigned) [Compound 166]	63.1
CC(c1ccc(Br)cc1)N1CCC(C2(c3ccccc3)CCC(=O)NC2=O)CC1 (stereo not shown) [Compound 1]	398
CC(c1ccc(Br)cc1)N1CCC(C2(c3ccc(F)cc3)CCC(=O)NC2=O)CC1 (stereo not shown) [Compound 3]	200
O=C1CCC(c2cccnc2)(C2CCN(Cc3ccc(Cl)cc3)CC2)C(=O)N1 (stereo not shown) [Compound 4]	794
COc1ccc(S(=O)(=O)O)cc1C1(C2CCN(Cc3ccc(Br)cc3)CC2)CCC(=O)NC1=O (stereo not shown) [Compound 6]	158
O=C1CCC(c2ccccc2)(N2CCN(Cc3ccc(Br)cc3)CC2)C(=O)N1 (stereo not shown) [Compound 7]	251
CC(c1ccc(Br)cc1)N1CCC(C2(c3ccccc3)CCCNC2=O)CC1 (stereo not shown) [Compound 11]	794
O=C1CCC(c2ccc(F)cc2)(C2CCN(Cc3ccc(Br)cc3F)CC2)CN1 (stereo not shown) [Compound 15]	398
O=C1CCC(c2ccccc2)(C2CCN(Cc3ccc(Br)c(F)c3)CC2)C(=O)N1 (stereo not shown) [Compound 16a]	316
O=C1CCC(c2ccccc2)(C2CCN(Cc3ccc(Cl)cc3)CC2)C(=O)N1 (stereo not shown) [Compound 19]	1260
O=C1CCC(c2ccccc2)(C2CCN(Cc3ccc(Cl)cc3)CC2)C(=O)N1 (stereo not shown) [Compound 20]	794
O=C1CCC(c2cccc(C(=O)O)c2)(C2CCN(Cc3ccc(Cl)c(F)c3)CC2)C(=O)N1 (stereo not shown) [Compound 22]	251
CC(=O)Nc1ccccc1C1(C2CCN(Cc3ccc(Br)cc3)CC2)CCC(=O)NC1=O (stereo not shown) [Compound 24]	1000
O=C1CCC(c2ccc(F)cc2)(C2CCN(Cc3ccc(Cl)c(F)c3)CC2)C(=O)N1 (stereo not shown) [Compound 26]	200
O=C1CCC(c2ccccc2)(N2CCN(Cc3ccc(Cl)c(F)c3)CC2)C(=O)N1 (stereo not shown) [Compound 27]	2510
O=C1CCC(c2ccccc2)(C2CCN(Cc3ccc4ccccc4c3)CC2)C(=O)N1 (stereo not shown) [Compound 28]	3980
O=C1CCC(c2ccccn2)(C2CCN(Cc3ccc(Cl)c(F)c3)CC2)C(=O)N1 (stereo not shown) [Compound 29]	794
O=C1CCC(c2ccccc2)(C2CCN(Cc3ccc(Cl)c(F)c3)CC2)C(=O)N1 (stereo not shown) [Compound 31]	200
CN1CCN(C(=O)c2cccc(C3(C4CCN(Cc5ccc(Br)cc5)CC4)CCC(=O)NC3=O)c2)CC1 (stereo not shown) [Compound 34]	1260
COC(=O)c1ccc(CN2CCC(C3(c4ccccc4)CCC(=O)NC3=O)CC2)cc1 (stereo not shown) [Compound 36]	1260

SMILES	IC50 [nM]
O=C1CCC(c2ccccc2)(C2CCN(Cc3ccc(F)cc3)CC2)C(=O)N1 (stereo not shown) [Compound 43]	3160
O=C1CCC(c2ccccc2)(C2CCN(Cc3ccc(F)cc3)CC2)C(=O)N1 (stereo not shown) [Compound 44]	5010
O=C1CCC(c2ccccc2)(C2CCN(Cc3ccc(F)cc3)CC2)C(=O)N1 (stereo not shown) [Compound 45]	3980
COc1cc(F)ccc1CN1CCC(C2(c3ccccc3)CCC(=O)NC2=O)CC1 (stereo not shown) [Compound 46]	3980
O=C1CCC(c2ccccc2)(C2CCN(Cc3ccc(F)c(F)c3)CC2)C(=O)N1 (stereo not shown) [Compound 47]	2000
O=C1CCC(c2ccc(F)cc2)(C2CCN(Cc3ccc(F)c(F)c3)CC2)C(=O)N1 (stereo not shown) [Compound 49]	3980
O=C1CCC(c2ccccc2)(C2CCN(Cc3ccc(F)c(F)c3F)CC2)C(=O)N1 (stereo not shown) [Compound 50]	1580
O=C1CCC(c2cccc(Cl)c2)(C2CCN(Cc3ccc(F)c(F)c3F)CC2)C(=O)N1 (stereo not shown) [Compound 51]	2510
Cc1cccc(C2(C3CCN(Cc4ccc(F)c(F)c4F)CC3)CCC(=O)NC2=O)c1 (stereo not shown) [Compound 52]	1260
COc1cccc(C2(C3CCN(Cc4ccc(F)c(F)c4F)CC3)CCC(=O)NC2=O)c1 (stereo not shown) [Compound 53]	2000
O=C1CCC(c2ccc(F)cc2)(C2CCN(Cc3ccc(F)c(F)c3F)CC2)C(=O)N1 (stereo not shown) [Compound 54]	1260
O=C1CCC(c2ccccc2)(C2CCN(Cc3ccc(F)c(Cl)c3)CC2)C(=O)N1 (stereo not shown) [Compound 55]	3160
O=C1CCC(c2ccc(F)cc2)(C2CCN(Cc3ccc(F)c(Cl)c3)CC2)C(=O)N1 (stereo not shown) [Compound 56]	5010
O=C1CCC(c2ccccc2)(C2CCN(Cc3ccc(F)c(Br)c3)CC2)C(=O)N1 (stereo not shown) [Compound 57]	3980
O=C1CCC(c2ccc(F)cc2)(C2CCN(Cc3ccc(F)c(Br)c3)CC2)C(=O)N1 (stereo not shown) [Compound 58]	7940
Cc1cc(CN2CCC(C3(c4ccccc4)CCC(=O)NC3=O)CC2)ccc1F (stereo not shown) [Compound 59]	1260
COc1cc(CN2CCC(C3(c4ccccc4)CCC(=O)NC3=O)CC2)ccc1F (stereo not shown) [Compound 60]	3160
O=C1CCC(c2ccccc2)(C2CCN(Cc3ccc(Cl)cc3)CC2)C(=O)N1 (stereo not shown) [Compound 61]	1000
O=C1CCC(c2ccccc2)(C2CCN(Cc3ccc(Cl)cc3)CC2)C(=O)N1 (stereo not shown) [Compound 62]	794
O=C1CCC(c2cccc(Cl)c2)(C2CCN(Cc3ccc(Cl)cc3)CC2)C(=O)N1 (stereo not shown) [Compound 63]	2000
Cc1cccc(C2(C3CCN(Cc4ccc(Cl)cc4)CC3)CCC(=O)NC2=O)c1 (stereo not shown) [Compound 64]	2000
O=C1CCC(c2cccc(C(=O)O)c2)(C2CCN(Cc3ccc(Cl)cc3)CC2)C(=O)N1 (stereo not shown) [Compound 66]	794
COc1cccc(C2(C3CCN(Cc4ccc(Cl)cc4)CC3)CCC(=O)NC2=O)c1 (stereo not shown) [Compound 67]	1000
O=C1CCC(c2ccc(F)cc2)(C2CCN(Cc3ccc(Cl)cc3)CC2)C(=O)N1 (stereo not shown) [Compound 68]	794

Same assay, conditions: pIC50, -log IC50 (molar) inhibiting 50% of specific I-TAC-induced GTPγS-binding; membranes of human CXCR3-transfected CHO cells

SMILES	IC50 [nM]
O=C1CCC(c2ccccc2)(C2CCN(Cc3ccc(Br)cc3)CC2)C(=O)N1 (single isomer, unassigned) [Compound 13]	316
COc1cccc(C2(C3CCN(Cc4ccc(Br)cc4)CC3)CCC(=O)NC2=O)c1 (stereo not shown) [Compound 8]	1580
O=C1CCC(c2ccccc2)(C2CCN(Cc3ccc(Br)cc3)CC2)C(=O)N1 (stereo not shown) [Compound 10]	316
Nc1cccc(C2(C3CCN(Cc4ccc(Br)cc4)CC3)CCC(=O)NC2=O)c1 (stereo not shown) [Compound 35]	316
O=C1CCC(c2cccc(C(F)(F)F)c2)(C2CCN(Cc3ccc(Cl)cc3)CC2)C(=O)N1 (stereo not shown) [Compound 65]	2510

Same assay, conditions: read-out: pIC50 (converted)

SMILES	IC50 [nM]
Cc1cccc(C2(C3CCN(Cc4ccc(Br)cc4)CC3)CCC(=O)NC2=O)c1 (stereo not shown) [Compound 9]	2000
